The source of these data is ChEMBL document CHEMBL1142962, “Antiproliferative prenylated stilbenes and flavonoids from Macaranga alnifolia from the Madagascar rainforest” (J Nat Prod, 2007).

In the assay the test system is A2780 (human ovarian cancer). Kind of assay: Antiproliferative activity against drug-sensitive human A2780 cells.

For orientation: IC50 means the concentration that gives 50% inhibition.

SMILES strings stand for the structures.

For the compound `COc1cc(/C=C/c2cc(O)c(CC=C(C)C)c(O)c2)cc2c1O[C@]1(C)CC[C@@H](O)C(C)(C)[C@H]1C2` [SCHWEINFURTHIN F], inhibition was half-maximal at 5 µM (IC50).
